Source: PMC11202169, “A Novel Fluorescence-Based Microplate Assay for High-Throughput Screening of hSULT1As Inhibitors” (Biosensors, 2024)
Structures can show the parent of a compound that is named as a salt.

Columns and labels:
[1] = Fluorescence quantum yield; type: physicochemical; settings: physiological conditions; standard quinine sulfate (Φ = 0.55)
Description: The fluorescence quantum yield is defined as the ratio of the number of photons emitted to the number of photons absorbed, which is a key parameter in fluorescence spectroscopy that describes the efficiency of the fluorescence process. The fluorescence quantum yields (Φ) of HN-241 and HN-241 sulfate were measured using quinine sulfate in 50 mM aqueous H2SO4 (Φ = 0.55) as the standard, and calculated according to the following Equation (1). (1) Yu=Ys × Fu × As/Fs × Au
“A” represents the absorbance at the excitation wavelength, “F” denotes the integral fluorescence intensity, and the subscripts “s” and “u” refer to the standard and sample, respectively.

[2] = target: T1, hSULT1A1 (Homo sapiens, UniProt P50225); assay: Enzymatic kinetics of hSULT1A1-catalyzed HN-241 4-O-sulfation; type: biochemical
T1 construct: 6-histidine tag (N); TEV site (N); made in house; host or cells: Escherichia coli BL21 (DE3), pET29a(+)
T1 sequence (P50225 whole entry): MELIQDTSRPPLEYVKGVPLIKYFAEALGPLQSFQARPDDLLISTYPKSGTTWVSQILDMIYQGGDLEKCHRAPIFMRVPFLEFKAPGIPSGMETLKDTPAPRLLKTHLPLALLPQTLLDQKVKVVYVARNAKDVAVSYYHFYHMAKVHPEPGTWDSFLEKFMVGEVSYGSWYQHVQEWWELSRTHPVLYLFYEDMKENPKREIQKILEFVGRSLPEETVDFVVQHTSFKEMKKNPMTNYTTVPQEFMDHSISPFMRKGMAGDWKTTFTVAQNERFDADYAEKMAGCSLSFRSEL
Description: (§1) The enzymatic kinetic parameters of hSULT1As-catalyzed HN-241 4-O-sulfation were measured by incubating increasing concentrations of HN-241 with each of the hSULT1As for a certain period. The fitting equations included Equation (2), the Michaelis–Menten equation, and Equation (3) for enzyme kinetics with substrate inhibition. Related kinetic parameters were fitted by GraphPad Prism 8.0 (San Diego, CA, USA). (2) V=Vmax × [S]/Km+[S] (3) V=Vmax × [S]/Km+[S](1+[S]/Ki)
(§2) [S] refers to the concentration of HN-241, Vmax is the maximum rate of hSULT1As-catalyzed HN-241 4-O-sulfation, Km is the substrate concentration at the half Vmax, and Ki represents the dissociation constant for the binding of the substrate to the inhibitory site.

[3] = tested on: hSULT1As; assay: O-sulfation and spectroscopic changes with hSULT1As (statements for all isoforms together); type: biochemical, human; settings: substrate 10 μM, all tested hSULT1A isozymes
Description: (§3) The incubation system consisted of Tris-HCl buffer (pH 7.4, 50 mM), MgCl2 (5 mM), DTT (200 μM), recombinant hSULT1As (29 pmol), and each fluorophore or 4-HN derivative (10 μM). After pre-incubation at 37 °C for 3 min, the reaction was initiated by adding an excess of PAPS (200 μM). Following 1 h incubation, the reaction was terminated with the addition of an equal volume of ice-cold acetonitrile. After centrifugation at 20,000× g for 20 min at 4 °C, the supernatant was collected for HPLC analysis. The mobile phase consisted of 10 mM aqueous ammonium acetate (A) and acetonitrile (B) at a flow rate of 0.4 mL/min. Gradient elution was performed under the following conditions: 0–2.0 min, 5% B; 2.0–10.0 min, 5–95% B; 10.0−12.0 min, 95% B; 12.0–12.5 min, 95–5% B; and 12.5–15.0 min, 5% B.
The spectroscopic changes in these fluorophores following O-sulfation were investigated. The incubation system was the same as that used in Section 2.3. The emission spectra of eight fluorophores in the presence and absence of three hSULT1A isoforms were determined using BioTek Synergy H1.

[4] = target: T2, hSULT1A2 (Homo sapiens, UniProt P50226); assay: Enzymatic kinetics of hSULT1A2-catalyzed HN-241 4-O-sulfation; type: biochemical
T2 construct: 6-histidine tag (N); TEV site (N); made in house; host or cells: Escherichia coli BL21 (DE3), pET29a(+)
T2 sequence (P50226 whole entry): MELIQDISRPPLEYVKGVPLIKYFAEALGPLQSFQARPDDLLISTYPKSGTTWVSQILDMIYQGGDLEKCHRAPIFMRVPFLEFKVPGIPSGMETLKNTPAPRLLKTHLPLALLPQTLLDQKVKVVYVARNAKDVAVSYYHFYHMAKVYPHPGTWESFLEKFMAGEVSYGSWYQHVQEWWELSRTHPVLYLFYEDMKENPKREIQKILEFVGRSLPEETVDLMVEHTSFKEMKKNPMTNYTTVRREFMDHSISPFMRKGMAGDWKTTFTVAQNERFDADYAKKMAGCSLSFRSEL
Description: as §1, §2

[5] = target: T3, hSULT1A3 (Homo sapiens, UniProt P0DMM9); assay: Enzymatic kinetics of hSULT1A3-catalyzed HN-241 4-O-sulfation; type: biochemical
T3 construct: 6-histidine tag (N); TEV site (N); made in house; host or cells: Escherichia coli BL21 (DE3), pET29a(+)
T3 sequence (P0DMM9 whole entry): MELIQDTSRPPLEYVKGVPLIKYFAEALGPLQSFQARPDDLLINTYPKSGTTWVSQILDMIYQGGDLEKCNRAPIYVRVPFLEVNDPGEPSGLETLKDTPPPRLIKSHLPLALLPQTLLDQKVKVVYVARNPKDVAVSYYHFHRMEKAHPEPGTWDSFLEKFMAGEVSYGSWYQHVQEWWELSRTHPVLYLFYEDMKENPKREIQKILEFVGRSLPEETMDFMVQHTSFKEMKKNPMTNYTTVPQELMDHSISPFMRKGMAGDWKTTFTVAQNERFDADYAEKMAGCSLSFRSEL
Description: as §1, §2

[6] = target: T2, hSULT1A2; assay: hSULT1As reaction phenotyping assay (HPLC), hSULT1A2; type: biochemical; settings: for Sulfation rate: peak area of the sulfated metabolite detected by HPLC, hSULT1A2: fluorophore 10 μM, PAPS 200 μM, 1 h, 37 °C
Description: as §3

[7] = target: T1, hSULT1A1; assay: hSULT1As reaction phenotyping assay (HPLC), hSULT1A1; type: biochemical; settings: for Sulfation rate: peak area of the sulfated metabolite detected by HPLC, hSULT1A1: fluorophore 10 μM, PAPS 200 μM, 1 h, 37 °C
Description: as §3

[8] = tested on: hSULT1As; parameters: method as in PMID 12264750, PMID 35713964, PMID 6786543; settings: ascorbic acid as competitive inhibitor of hSULT1As; ref [13],[14],[15]; cited from earlier work
[9] = target: T3, hSULT1A3; assay: hSULT1As reaction phenotyping assay (HPLC), hSULT1A3; type: biochemical; settings: fluorophore 10 μM, PAPS 200 μM, 1 h, 37 °C
Description: as §3

| SMILES | O-sulfation by hSULT1As (in words) [3] | Sulfation rate: peak area of the sulfated metabolite detected by HPLC, hSULT1A2 [6] | Sulfation rate: peak area of the sulfated metabolite detected by HPLC, hSULT1A1 [7] | further results |
| --- | --- | --- | --- | --- |
| CCN1C(=O)c2cccc3c(OS(=O)(=O)O)ccc(c23)C1=O [HN-241 sulfate] |  |  |  | Fluorescence quantum yield (Φ) [1]: 0.86 |
| CCN1C(=O)c2cccc3c(O)ccc(c23)C1=O [HN-241, 4-hydroxy-N-ethyl-1,8-naphthalimide] | highest O-sulfation rate |  |  | Clint ([2]; HN-241 4-O-sulfation): 24,265.93 μL/min/mg Protein; Ki ([2]; substrate inhibition constant of HN-241 (binding of substrate to the inhibitory site)): 1.37 ± 0.4 µM; Fluorescence quantum yield (Φ) [1]: 0.02; Clint ([4]; hSULT1A2): 1440.94 μL/min/mg Protein; Vmax ([4]; hSULT1A2, Michaelis–Menten kinetics): 6441.00 pmol/min/mg Protein; Clint ([5]; hSULT1A3): 683.26 μL/min/mg Protein; Vmax ([5]; hSULT1A3, Michaelis–Menten kinetics): 8814.00 pmol/min/mg Protein |
| CN(C)CCN1C(=O)c2cccc3c(O)ccc(c23)C1=O [HN-283] | very slow O-sulfation rates |  |  |  |
| O=C(O)CCCN1C(=O)c2cccc3c(O)ccc(c23)C1=O [HN-299] | very slow O-sulfation rates |  |  |  |
| O=C1c2cccc3c(O)ccc(c23)C(=O)N1CCc1ccccc1 [HN-317] | very slow O-sulfation rates |  |  |  |
| O=C1c2cccc3c(O)ccc(c23)C(=O)N1CCc1ccc(F)cc1 [HN-335] | very slow O-sulfation rates |  |  |  |
| Cc1ccc(NC(=O)CCCN2C(=O)c3cccc4c(O)ccc(c34)C2=O)cc1 [HN-388] |  |  |  | O-sulfation in hSULT1A2 (in words) ([6]; 4-HN derivative 10 μM): scarcely metabolized; O-sulfation in hSULT1A1 (in words) ([7]; 4-HN derivative 10 μM): rapidly metabolized |
| O=C1O[C@H]([C@@H](O)CO)C(O)=C1O [ascorbic acid] |  |  |  | Boost of the bioavailability of ethinylestradiol [8]: approximately 50% |
| O=c1ccc2nc3ccc(O)cc3oc-2c1 [fluorophore A] |  | + (“+” shows the peak area of the sulfated metabolites of each fluorophore detected by HPLC, ranging from 0 to 10,000) | ++ (“++” and “+++” denote ranges from 10,000 to 50,000, and greater than 50,000, respectively) |  |
| CCCCN1C(=O)c2cccc3c(O)ccc(c23)C1=O [fluorophore B, 4-hydroxy-N-butyl-1,8-naphthalimide] |  | ++ (“++” and “+++” denote ranges from 10,000 to 50,000, and greater than 50,000, respectively) | ++ (“++” and “+++” denote ranges from 10,000 to 50,000, and greater than 50,000, respectively) | Sulfation rate: peak area of the sulfated metabolite detected by HPLC, hSULT1A3 [9]: ++ (“++” and “+++” denote ranges from 10,000 to 50,000, and greater than 50,000, respectively) |
| CC1=[N+]2C(=C(c3ccc(O)cc3)c3ccc(C)n3[B-]2(F)F)C=C1 [fluorophore C] | could not be sulfated |  |  |  |
| N#CC(C#N)=C1C=C(/C=C/c2ccc(O)cc2)Oc2ccccc21 [fluorophore D] |  | ++ (“++” and “+++” denote ranges from 10,000 to 50,000, and greater than 50,000, respectively) | +++ (“++” and “+++” denote ranges from 10,000 to 50,000, and greater than 50,000, respectively) |  |
| CC1(C)OC(=C(C#N)C#N)C(C#N)=C1/C=C/c1cc2ccc(O)cc2oc1=O [fluorophore E] |  | +++ (“++” and “+++” denote ranges from 10,000 to 50,000, and greater than 50,000, respectively) | + (“+” shows the peak area of the sulfated metabolites of each fluorophore detected by HPLC, ranging from 0 to 10,000) | Sulfation rate: peak area of the sulfated metabolite detected by HPLC, hSULT1A3 [9]: +++ (“++” and “+++” denote ranges from 10,000 to 50,000, and greater than 50,000, respectively) |
| CC1(C)OC(=C(C#N)C#N)C(C#N)=C1/C=C/c1ccc2cc(O)ccc2c1 [fluorophore F] |  | + (“+” shows the peak area of the sulfated metabolites of each fluorophore detected by HPLC, ranging from 0 to 10,000) | +++ (“++” and “+++” denote ranges from 10,000 to 50,000, and greater than 50,000, respectively) |  |
| CCCCN1C(=O)c2cccc3c4c(cc(c23)C1=O)C(C)(C)C(/C=C/c1ccc(O)cc1)=N4 [fluorophore G] | could not be sulfated |  |  |  |
| CC[n+]1ccc(/C=C/c2ccc(-c3ccc(O)cc3)s2)c2ccccc21 [fluorophore H] | highest O-sulfation rate | ++ (“++” and “+++” denote ranges from 10,000 to 50,000, and greater than 50,000, respectively) | +++ (“++” and “+++” denote ranges from 10,000 to 50,000, and greater than 50,000, respectively) | Sulfation rate: peak area of the sulfated metabolite detected by HPLC, hSULT1A3 [9]: +++ (“++” and “+++” denote ranges from 10,000 to 50,000, and greater than 50,000, respectively) |
